In US20110117588A1, “METHOD OF PREDICTING DRUG-INDUCED PHOSPHOLIPIDOSIS” (KYUSHU UNIVERSITY, NATIONAL UNIVERSITY CORPORATION, priority 2007, published 2011):
Read-outs that look alike come from different tables or passages of the source.

Assays:
NRK cells [1] = test: Extracellular and intracellular lysosomal enzyme activity after exposure of NRK cells; assay type: cell-based, rat; details: 24 hr
Protocol: NRK cells were exposed to 0 (solvent control), 5, 10, 20, 40 and 80 μM of AD for 24 hr, and lysosomal enzyme activities in the cell and medium were measured by a conventional method.
(§1) On the other hand, CTL is biosynthesized as an about 39 kDa proenzyme, and converted to a 30 kDa single strand intermediate enzyme and a 23 kDa and 7 kDa double stranded mature enzyme during the process of intracellular transport. […] While CTD increased the enzyme activity in the medium in an AD dose-dependent manner, CTL caused no change. The reason therefor is considered to be the measurement of CTD activity at pH 4.0 where autocatalytic processing occurs, and the measurement of CTL activity at pH 6.0 where processing scarcely occurs.

NRK cells [2] = test system: NRK cells
NRK cells [3] = test: Intracellular and extracellular cathepsin D and cathepsin L levels by Western blotting; assay type: cell-based, rat
Protocol: In the case of cathepsin D (CTD), it is biosynthesized as an about 45 kDa proenzyme in rat cell (NRK), and processed in the acidic environment of lysosome to become an about 43 kDa mature enzyme.
Therefore, NRK cells were exposed to 0 (control), 5, 10, 20, 40 and 80 μM of AD for 24 hr, and lysosomal enzyme (CTD and cathepsin L (CTL)) levels in the cell and medium were measured by Western blotting using an antibody to these enzymes. To be specific, immunoprecipitates against anti-CTD antibody in cell lysate and medium or the cell lysate and medium for CTL were subjected to Western blot analysis using an anti-CTD antibody or anti-CTL antibody. […] Therefore, it was also shown that increased lysosomal enzyme in the medium was not caused by extracellular leakage due to cell damage and the like, but by selective extracellular secretion thereof.
as §1

NRK cells [4] = test: Swelling of late endosome/lysosome (LGP85 staining) and phospholipid accumulation (Nile Red) in NRK cells; assay type: cell-based, rat
Protocol: The cells were cultured in a DMEM medium supplemented with lipoprotein-deficient serum to 10% instead of normal fetal bovine serum, and morphological changes of lysosome and the presence or absence of phospholipid accumulation due to exposure to AD under the conditions free of extracellular supply of lipoprotein were examined.

NRK cells [5] = test: Intracellular LC3 level by Western blotting and confocal microscopy; assay type: cell-based; details: 20 μM; for LC3-II level: Western blot
Protocol: NRK cells were exposed to 20 μM of AD for 1, 3, 6, 12 and 24 hr, and the level of LC3 (microtuble-associated protein 1 light chain 3), which is an autophagy marker, in each cell was measured by Western blotting using an antibody to the protein. That is, cell lysate was subjected to Western blot analysis using an anti-LC3 antibody.
NRK cells were exposed to various PLIDs for 24 hr, and the intracellular level of LC3 was measured by western blotting.

NRK cells [6] = test: β-hexosaminidase activity in the medium after exposure of NRK cells
Text: On the other hand, the activity of lysosomal enzyme can be measured using an activity measurement method by known per se for each enzyme. For example, lysosomal enzyme can be quantified by contacting a sample with a substrate compound for a lysosomal enzyme, which emits fluorescence or develops color by an enzyme reaction, and measuring the intensity of the resulting fluorescence or developed color by a fluorometer, spectrophotometer and the like. For example, as a measurement method of β-hexosaminidase, β-galactosidase, β-glucuronidase or β-mannosidase, the method described in The EMBO Journal, 12: 5219-5223 (1993) can be mentioned, as a measurement method of cathepsin D, the method described in J. Biochem, 125: 1137-1143 (1999) can be mentioned, and as a measurement method of cathepsin B/L, the method described in Methods in Enzymology, 80: 535-561 (1981) can be mentioned.
Furthermore, the activity of β-hexosaminidase in the medium was measured by a conventional method.

NRK cells [7] = test: Localization of MPR in NRK cells by confocal laser microscope with antibody; details: 24 hr exposure, concentration at which localization altered

With CCCCc1oc2ccccc2c1C(=O)c1cc(I)c(OCCN(CC)CC)c(I)c1 [amiodarone] the “activity of α-glucosidase (endoplasmic reticulum enzyme)” value (NRK cells [1]; 5-80 μM) was “changed only at 80 μM”, the “intracellular lysosomal enzyme activity” value (NRK cells [1]; 5-80 μM) was “decreased” and the “lysosomal enzyme activity in the medium” value (NRK cells [1]; 5-80 μM) was “increased in an AD dose-dependent manner”. For the same molecule, the “CTL activity in the medium” value (NRK cells [1]; 5-80 μM, measured at pH 6.0) was “changed only at 80 μM”, the “intracellular CTL activity” value (NRK cells [1]; 5-80 μM, measured at pH 6.0) was “decreased in a dose-dependent manner” and the concentration showing cytotoxicity (NRK cells [1]) was 80 µM. For the same molecule, the “alteration of MPR localization” value (NRK cells [2]) was “altered”, the “alteration of MPR localization” value (NRK cells [2]; rat, 24 h) was over 10 µM and the “CTL proenzyme in the medium” value (NRK cells [3]) was “only proenzyme increased in an AD dose-dependent manner”. For the same molecule, the “cathepsin D proenzyme in the medium” value (NRK cells [3]) was “only proenzyme increased in an AD dose-dependent manner”, the “ratio of CTL mature enzyme in the cell” value (NRK cells [3]) was “decreased in an AD dose-dependent manner” and the “ratio of CTL proenzyme in the cell” value (NRK cells [3]) was “the ratio of proenzyme increased”. The “ratio of intracellular cathepsin D proenzyme” value (NRK cells [3]) was “increased in a dose-dependent manner”, the accumulation of phospholipid (NRK cells [4]; NRK cells in DMEM with 10% lipoprotein-deficient serum) was “accumulation of phospholipid was found at the site” and the “late endosome/lysosome morphology (LGP85)” value (NRK cells [4]; NRK cells in DMEM with 10% lipoprotein-deficient serum, various concentrations, 24 hr) was “enlargement of late endosome/lysosome occurred in an AD dose-dependent manner”. For the same molecule, the “accumulation of phospholipid (Nile Red staining)” value (NRK cells [4]; NRK cells, 24 hr exposure) was “accumulation of phospholipid was found”, the “late endosome/lysosome morphology (LGP85 antibody)” value (NRK cells [4]; NRK cells, 24 hr exposure) was “enlarged” and the “granular staining with LC3 in the cell” value (NRK cells [5]; 1-24 hr, confocal laser microscope) was “increased in a time-dependent manner”. For the same molecule, the LC3-II level (NRK cells [5]; 12 and 24 hr) was “remarkably increased”, the LC3-II level (NRK cells [5]; 3 hr) was “increased” and the β-hex activity increase (NRK cells [6]; rat, 24 h) was over 10 µM.
For CC(=O)Oc1ccccc1C(=O)O [aspirin], the “alteration of MPR localization” value (NRK cells [2]) was “none” and the β-hex activity increase (NRK cells [6]) was “none”.
With CC/C(=C(\c1ccccc1)c1ccc(OCCN(C)C)cc1)c1ccccc1 [tamoxifen] the “alteration of MPR localization” value (NRK cells [2]; rat, 24 h) was 10 µM and the β-hex activity increase (NRK cells [6]; rat, 24 h) was over 10 µM.
For CCN(CC)CCO[C@H]1CC[C@@]2(C)C(=CC[C@@H]3[C@@H]2CC[C@]2(C)C(=O)CC[C@@H]32)C1 [U18666A], the “alteration of MPR localization” value (NRK cells [2]; rat, 24 h) was 3 µg/mL and the β-hex activity increase (NRK cells [6]; rat, 24 h) was 3 µg/mL.
In the case of C[C@H](CS)C(=O)N1CCC[C@H]1C(=O)O [captopril], the β-hex activity increase (NRK cells [6]) is reported as “none”.
CSc1ccc2c(c1)N(CCC1CCCCN1C)c1ccccc1S2 (stereo not drawn) [thioridazine] was tested, and the “alteration of MPR localization” value (NRK cells [2]; rat, 24 h) was 10 µM and the β-hex activity increase (NRK cells [6]; rat, 24 h) was 10 µM.
Molecule CC[C@H]1OC(=O)[C@H](C)[C@@H](O[C@H]2C[C@@](C)(OC)[C@@H](O)[C@H](C)O2)[C@H](C)[C@@H](O[C@@H]2O[C@H](C)C[C@H](N(C)C)[C@H]2O)[C@](C)(O)C[C@@H](C)C(=O)[C@H](C)[C@@H](O)[C@]1(C)O [erythromycin] has a β-hex activity increase (NRK cells [6]; rat, 24 h) of over 400 µM.
With CC1(C)S[C@@H]2[C@H](NC(=O)[C@H](N)c3ccc(O)cc3)C(=O)N2[C@H]1C(=O)O [amoxicillin] the “alteration of MPR localization” value (NRK cells [2]) was “none” and the β-hex activity increase (NRK cells [6]) was “none”.
CNCCCC12CCC(c3ccccc31)c1ccccc12 [maprotiline] was tested, and the “alteration of MPR localization” value (NRK cells [2]; rat, 24 h) was 20 µM and the β-hex activity increase (NRK cells [6]; rat, 24 h) was over 20 µM.
With CCN(CC)CCOc1ccc2c(c1)C(=O)c1cc(OCCN(CC)CC)ccc1-2 [tilorone] the “alteration of MPR localization” value (NRK cells [2]; rat, 24 h) was over 5 µM, the “cathepsin D proenzyme in the medium” value (NRK cells [3]) was “the amount of proenzyme secreted in the medium increased” and the “ratio of intracellular cathepsin D proenzyme” value (NRK cells [3]) was “the ratio of intracellular proenzyme increased”. For the same molecule, the β-hex activity increase (NRK cells [6]; rat, 24 h) was over 2.5 µM.
C=C[C@H]1C[N@@]2CC[C@H]1C[C@@H]2[C@@H](O)c1ccnc2ccc(OC)cc12 [quinidine] showed a β-hex activity increase (NRK cells [6]; rat, 24 h) of 100 µM.
CCN(CC)CCCC(C)Nc1ccnc2cc(Cl)ccc12 (stereo not drawn) [chloroquine] was tested, and the “alteration of MPR localization” value (NRK cells [2]; rat, 24 h) was over 5 µM, the “cathepsin D proenzyme in the medium” value (NRK cells [3]) was “the amount of proenzyme secreted in the medium increased” and the “ratio of intracellular cathepsin D proenzyme” value (NRK cells [3]) was “the ratio of intracellular proenzyme increased”. The β-hex activity increase (NRK cells [6]; rat, 24 h) was over 5 µM.
With C1CCC(C(CC2CCCCN2)C2CCCCC2)CC1 (stereo not drawn) [perhexiline] the “alteration of MPR localization” value (NRK cells [2]; rat, 24 h) was 2.5 µM and the β-hex activity increase (NRK cells [6]; rat, 24 h) was 5 µM.
With Cl.N [NH4Cl, ammonium chloride] the “ratio of intracellular cathepsin D proenzyme” value (NRK cells [3]; NRK cells, 24 hr, Western blot of cell lysate immunoprecipitate) was “the ratio of intracellular proenzyme increased”, the “cathepsin D proenzyme in the medium” value (NRK cells [3]; NRK cells, 24 hr, Western blot of medium immunoprecipitate) was “the amount of proenzyme secreted in the medium increased” and the “alteration of MPR localization” value (NRK cells [7]) was over 5 mM. The β-hex activity increase (NRK cells [6]; NRK cells, 24 hr exposure, concentration at which β-hexosaminidase activity in medium increased) was over 1000 µM.
With O=C(CCCN1CCC(O)(c2ccc(Cl)cc2)CC1)c1ccc(F)cc1 [haloperidol] the “alteration of MPR localization” value (NRK cells [2]; rat, 24 h) was over 20 µM and the β-hex activity increase (NRK cells [6]; rat, 24 h) was over 10 µM.
Work on CN(C)CCCN1c2ccccc2Sc2ccc(Cl)cc21 [chlorpromazine] yielded a β-hex activity increase (NRK cells [6]; rat, 24 h) of 20 µM.
CN(C)CCCN1c2ccccc2CCc2ccccc21 [imipramine] gave a β-hex activity increase (NRK cells [6]; rat, 24 h) of over 40 µM.
